Like-named read-outs stand apart in the source and are kept apart here. A value given as a limit tells only on which side of the number the result lay.

Data set [1] deals with serotonin 4 receptors. To be noted: stimulants of serotonin 4 receptors; Alimentary Pharmacology and Therapeutics, vol. 6, page 273, 1992; cited from earlier work.
Data set [2] has as its target T1, serotonin 4 receptor (Cavia porcellus, UniProt O70528).
T1 construct: from tissue; host or cells: ileum longitudinal muscle strips of Hartley guinea pigs
Kind of data set: Stimulating action test on serotonin 4 receptor: twitch responses in electrically stimulated longitudinal muscle strips of guinea pig ileum. The format is cell-based, guinea pig (Hartley). An excerpt:
Stimulating Action Test on Serotonin 4 Receptor Test Drugs
Test Drug 1: Compound 1 of the present invention
Test Drug 2: The compound described in Japanese Patent Kokai No. 3-197462 represented by the following formula: [drawing 5]
Test Drug 3: The compound described in Japanese Patent Kokai No. 4-226980 represented by the following formula: [drawing 6]
Twitch responses were examined in longitudinal muscle strips of guinea pig according to a modification of the method described in The Journal of Pharmacology and Experimental Therapeutics, vol. 252, page 1378, 1990.
From Hartley guinea pigs, a section of ileum 25 cm in length and proximal to the ileocecal junction was removed. The longitudinal muscle strips obtained from two segments of ileum about 4 cm each in length were used for this test. The longitudinal muscle strips were suspended in Kreb's solution at 32° to 34° C. and bubbled with 95% O2 and 5% CO2 under a load of about 0.8 g. The responses were recorded under an electrical stimulation of 0.2 Hz, 1 msec pulse duration, using force displacement transducers. The longitudinal muscle strips were allowed to stand at supramaximal voltage for about an hour, and thereby were stable. After it was confirmed that the twitch responses were enhanced by 10^-8 M 5-HT, each test drug was examined on its activity for twitch responses. The test was carried out by exposing the strips to cumulative additions of the test drug at least at 45 minute intervals.

The test system of data set [3] is gastrointestinal motor. The data set is described as follows: Action on gastrointestinal motor in dogs (strain gauge force transducers, motility index). It is filed as in vivo, Beagle dogs. To be noted: for Motility Index: dog, gastric motor after feeding. Here is the method:
Action on Gastrointestinal Motor in Dogs
The test was carried out by a modification of the method described in Gastroenterologia Japonica, vol. 12, page 275, 1977.
Beagle dogs of both sexes weighing 9 to 15 kg were anesthetized with sodium pentobarbital and strain gauge force transducers were sutured on 5 portions, i.e. for determining antral, duodenum, jejunal, ileal and colonel motor responses. A cannula for administering a drug was mounted persistently into the jugular vein. After recovery of the surgery, motor responses of the dog under no-anesthesia without restriction at those portions on the gastrointestinal tract in both during a fasting period and after feeding were determined in the conscious […].
(§1) The compound of the present invention was administered after dissolving in saline aqueous solution.
The motor index is shown in terms of a proportion (%) of a mean value calculated for 15 minutes to a value prior to administration (0 minute). The value for 0 minute was made a mean value for 30 minutes prior to the administration.
Tables 2 and 3 show the activity of the compound of the present invention in doses of 0.3 mg/kg for intravenous route and 1 mg/kg for oral route, respectively, on the gastric motor action after feeding.

Data set [4] has as its system gastric emptying. The data set is described as follows: Action on gastric emptying in rats (clonidine-treated, residual rate of glass balls in stomach). It is filed as in vivo, Male wistar rats. As to conditions: rat; for Residual rate in Stomach: relative to clonidine hydrochloride-treated animal. As for the experimental part: Action on Gastric Emptying in Rats
The test was carried out by a modification of the method described in British Journal of Pharmacology, vol. 91, page 263, 1987.
Male wistar rats weighing 170 to 220 g were used after fasting for 24 hours.
Clonidine hydrochloride of 30 μg/kg was administered subcutaneously, and after 30 minutes the compound of the present invention was administered subcutaneously. After 30 minutes 1 ml of glass balls (500 mg/ml) was administered orally. After 30 minutes the glass balls remained in the stomach were recovered and weighed to determine the rate [residual rate in stomach (%)] to the residual amount in the stomach of the clonidine hydrochloride-treated animal.
as §1

The nature of data set [5]: Toxicity examination of mouse single administration (acute toxicity). To be noted: in vivo, single oral administration, read-out: LD value. Here is the method: With respect to toxicity of Compound (1) represented by Formula (I) which is an effective ingredient of the pharmaceutical composition of the present invention, as a result of the toxicity examination of mouse single administration (acute toxicity), the LD value is more than 500 mg/kg by oral administration.

Where [6] appears, read: guinea pig ileum longitudinal muscle strips, electrical stimulation 0.2 Hz, 1 msec, cumulative additions at least at 45 minute intervals, read-out: ED50 (the source's name).

T1 sequence (O70528 whole entry): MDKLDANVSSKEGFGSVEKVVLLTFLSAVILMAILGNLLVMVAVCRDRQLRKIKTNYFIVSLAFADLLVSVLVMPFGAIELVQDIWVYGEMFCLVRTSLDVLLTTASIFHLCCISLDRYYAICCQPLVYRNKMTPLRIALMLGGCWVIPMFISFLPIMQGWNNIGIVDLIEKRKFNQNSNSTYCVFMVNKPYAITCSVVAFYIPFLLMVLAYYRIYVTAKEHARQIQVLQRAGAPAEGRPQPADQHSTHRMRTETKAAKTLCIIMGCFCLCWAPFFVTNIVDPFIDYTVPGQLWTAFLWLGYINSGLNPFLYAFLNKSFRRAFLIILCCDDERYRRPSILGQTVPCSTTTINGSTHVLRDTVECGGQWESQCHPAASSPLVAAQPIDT

With `COc1cc(N)c(Cl)cc1C(=O)NC1CCN(CCCOc2ccc(F)cc2)CC1OC` (centres unmarked) [Cisapride], in data set [1], the gastrointestinal motor functions result is on record as “accelerate gastrointestinal motor functions”.

Regarding `NCCc1c[nH]c2ccc(O)cc12` [Compound 5-HT], the twitch responses entry in data set [2] (10^-8 M 5-HT, confirmation before test drug) was “enhanced”.

The compound `CC(C)n1c(=O)c(C(=O)O[C@H]2C[C@H]3CC[C@@H](C2)N3C)cc2ccccc21` [Compound (1), endo-(8-methyl-8-azabicyclo[3.2.1]oct-3-yl) 1-isopropyl-2(1H)-quinolone-3-carboxylate] gave an EC50 in data set [2] of 21.3 nM. For the same compound, the “Motility Index” value in data set [3] (intravenous 0.3 mg/kg, 0 min (value prior to administration, = 100), N = 3) is recorded as 100%; in data set [3] (intravenous 0.3 mg/kg, 15 min, N = 3, p < 0.05), 247.8%; in data set [3] (intravenous 0.3 mg/kg, 30 min, N = 3, p < 0.01) it was 219.8%; in data set [3] (intravenous 0.3 mg/kg, 45 min, N = 3, p < 0.01) it was 178.8%; in data set [3] (intravenous 0.3 mg/kg, 60 min, N = 3, p < 0.01) it was 162.3%; in data set [3] (intravenous 0.3 mg/kg, 75 min, N = 3, p < 0.001), 181.0%. Further, the “Motility Index” value was 166.7% in data set [3] (intravenous 0.3 mg/kg, 90 min, N = 3); 150.1% in data set [3] (intravenous 0.3 mg/kg, 105 min, N = 3); 123.5% in data set [3] (intravenous 0.3 mg/kg, 120 min, N = 3); 100% in data set [3] (oral 1 mg/kg, 0 min (value prior to administration, = 100), N = 3); 179.5% in data set [3] (oral 1 mg/kg, 15 min, N = 3); 238.6% in data set [3] (oral 1 mg/kg, 30 min, N = 3). For the same compound, the “Motility Index” value in data set [3] (oral 1 mg/kg, 45 min, N = 3) worked out at 295.0%; in data set [3] (oral 1 mg/kg, 60 min, N = 3), 238.8%; in data set [3] (oral 1 mg/kg, 75 min, N = 3) it was 252.3%; in data set [3] (oral 1 mg/kg, 90 min, N = 3), 193.9%; in data set [3] (oral 1 mg/kg, 105 min, N = 3), 251.7%; in data set [3] (oral 1 mg/kg, 120 min, N = 3), 257.8%. For the same compound, the “Motility Index” value in data set [3] (oral 1 mg/kg, 135 min, N = 3, p < 0.05) amounted to 220.6%; in data set [3] (oral 1 mg/kg, 150 min, N = 3), 158.1%; in data set [3] (oral 1 mg/kg, 165 min, N = 3) it was 201.9%; in data set [3] (oral 1 mg/kg, 180 min, N = 3, p < 0.05), 188.9%. For the same compound, the “motor action on the gastrointestinal tract” value in data set [3] (intravenous and oral administrations, both during the fasting period and after feeding, vehicle alone no influence) was “showed acceleration on the motor action on the gastrointestinal tract”. For the same compound, the “Residual rate in Stomach” value in data set [4] (subcutaneous 0.03 mg/kg, 5 cases) came to 59.2%; in data set [4] (subcutaneous 0.1 mg/kg, 5 cases), 50.4%; in data set [4] (subcutaneous 0.3 mg/kg, 6 cases), 38.7%; in data set [4] (subcutaneous 1.0 mg/kg, 6 cases) it was 40.0%. In data set [4] (subcutaneous administration), the “action on gastric emptying” value is on record as “inhibited dose-dependent accelerating action on gastric emptying”. Besides, in data set [5], the LD50 is greater than 500 mg/kg.

Regarding `CN1[C@@H]2CC[C@H]1C[C@@H](OC(=O)c1cc3ccccc3[nH]c1=O)C2` [Test Drug 2], in data set [2] (setting [6]), the EC50 was greater than 3000 nM.

As for `CCCCn1c(=O)c(C(=O)N[C@H]2C[C@H]3CC[C@@H](C2)N3C)c(O)c2ccccc21` [Test Drug 3], the EC50 in data set [2] (setting [6]) is greater than 3000 nM.

Regarding `COc1cc(N)c(Cl)cc1C(=O)NC1CCN2CCCC1C2` (centres unmarked) [renzapride], the gastrointestinal motor functions entry in data set [1] was “accelerate gastrointestinal motor functions”.

Values taken from US5733917A, “Heterocyclic compound” (Taisho Pharmaceutical Co., Ltd., priority 1994, dated 1998).
